These are literature values, as cited in article PMC8198792, “Prediction of Anticancer Peptides with High Efficacy and Low Toxicity by Hybrid Model Based on 3D Structure of Peptides” (International Journal of Molecular Sciences, 2021).

The data set deals with cancer cell lines. Details: method as in 6 sources, ref CancerPPD [45] and SATPdb ||| ref CancerPPD/SATPdb ||| ref CancerPPD, SATPdb, Swissprot (PDB) ||| ref CancerPPD/SATPdb/Swissprot(PDB) ||| ref CancerPPD / SATPdb ||| ... The note with it: cited from earlier work. From the text: Supplement ijms-22-05630-s001.zip/ACPs(seguence).xlsx, sheet "D1" | column: Activity || Supplement ijms-22-05630-s001.zip/ACPs(seguence).xlsx, sheet "D2" | column: Activity || Supplement ijms-22-05630-s001.zip/ACPs(seguence).xlsx, sheet "D3" | column: Activity || (+ 2 further places)

Setting [1] is: ACPs dataset D1, 1 = ACP (positive), 0 = non-ACP (negative), label taken from databases, ref CancerPPD [45] and SATPdb.
The mark [2] stands for this setting: ACPs dataset D4 (sheet "D4"), label 1 = ACP, experimentally validated ACPs, ref CancerPPD [45] and SATPdb.
Where [3] appears, read: ACPs dataset D5 (sheet "D5"), label 1 = ACP (positive set), sequences with CancerPPD/SATPdb ID, ref CancerPPD, SATPdb.
The mark [4] stands for this setting: ACPs dataset sheet D2, 1 = ACP (CancerPPD/SATPdb ID), 0 = non-ACP (Swissprot/PDB ID), ref CancerPPD, SATPdb, Swissprot (PDB).
[5] abbreviates: ACPs dataset D1, label 1 = ACP, 0 = non-ACP (non-anticancer AMPs from SATPdb), ref CancerPPD/SATPdb.
[6] abbreviates: ACPs dataset D4 (sheet "D4"), label 1 = ACP (CancerPPD ID), 0 = non-ACP (non-anticancer AMP, SATPdb ID), ref CancerPPD [45] and SATPdb.
Where [7] appears, read: ACPs dataset D2 (supplement ACPs(seguence).xlsx, sheet D2), dataset label 1/0 (ACP / non-ACP), entries identified by Swissprot(PDB ID), ref CancerPPD/SATPdb/Swissprot(PDB).
Where [8] appears, read: ACPs dataset D5 (sheet "D5"), label 1 = ACP (positive set), 0 = non-ACP (negative set), ref CancerPPD [45] and SATPdb.
Where [9] appears, read: ACPs dataset D3 (supplement sheet "D3"), 1 = ACP, 0 = non-ACP, ref CancerPPD [45] and SATPdb.
Where [10] appears, read: ACPs dataset D3 (sheet "D3"), label 1 = ACP, 0 = non-ACP, ref CancerPPD/SATPdb.
The mark [11] stands for this setting: ACPs dataset D4 (sheet "D4"), label 1 = ACP, 0 = non-ACP, ref CancerPPD / SATPdb.
Where [12] appears, read: ACPs dataset D5, sheet "D5", label 1 = ACP, 0 = non-ACP, ref CancerPPD [45] and SATPdb.

Where two headings read alike, the source gives them in different places.

On to AAPFLECQGRQGTCHFFAN [satpdb18859], for which the Activity reads like this: under setting [1], 1; under setting [2], 1; under setting [3], 1; under setting [4], 1.

“ACYCRIPACLAGERRYGTCFYMGRVWAFCC [satpdb12594]”: the Activity under setting [5] is on record as 0 and the Activity under setting [6] is recorded as 0.

As for “AEDCVGRKACTREWYPVCGSDGVTYSNPCNFSAQQEQCDPNITIAHMGEC [2N71 NMR - A 1-50]”, the Activity under setting [7] is 0 and the Activity under setting [8] is given as 0.

With “AEVAPAPAAAAPAKAPKKKAAAKPKKAGPS [satpdb11318]”, the Activity is, setting by setting: under setting [1], 0; under setting [6], 0.

For the substance AIGKFLHSAKKFGKAFVGEIMNS [compound 1041], the Activity by setting is: under setting [9], 1; under setting [2], 1; under setting [3], 1.

On to AIGSILGALAKGLPTLISWIKNR [compound 4433], for which the Activity under setting [1] is 1, the Activity under setting [2] is reported as 1, the Activity under setting [3] is 1 and the Activity under setting [4] is 1.

Regarding AKLkAyPLKAKLyP [satpdb12877], the Activity was 0 under setting [10], 0 under setting [11] and 0 under setting [12].

In the case of AKRHHGYKRKFH [compound 1423], the Activity was 1 under setting [9], 1 under setting [2] and 1 under setting [3].

In the case of “ALALLOHALHOLALLAOHLAHOLALA [satpdb14515]”, the Activity is, setting by setting: under setting [10], 0; under setting [11], 0; under setting [12], 0.

As for “ALLGDFFRKSKEKIGKEFKRIVQRIKDFLRNLVPRTES [satpdb12863]”, the Activity runs as follows: under setting [5], 0; under setting [11], 0.

Consider ALLHHGLNCAKGVLA [satpdb12694], for which the Activity by setting is: under setting [5], 0; under setting [6], 0.

For “ALSKALSKALSKALSKALSKALSK [compound 1357]”, the Activity was 1 under setting [9], 1 under setting [2] and 1 under setting [3].

For “ALWKDILKNVGKAAGKAVLNTVTDMVNQ [compound 1707]”, the Activity under setting [9] is reported as 1, the Activity under setting [2] was 1 and the Activity under setting [3] is recorded as 1.

As to “ALWKNMLKGIGKLAGQAALGAVKTLVGA [compound 1706]”, the Activity under setting [1] is given as 1, the Activity under setting [2] was 1, the Activity under setting [3] is given as 1 and the Activity under setting [4] is recorded as 1.

Turning to ALWKTLLKKVLKA [satpdb10405], the Activity under setting [9] was 0.

For the substance ALWKTLLKKVLKA [satpdb11986], the Activity under setting [10] is 0.

ALWKTLLKKVLKA [satpdb12593]: the Activity is on record as 0 under setting [11] and 0 under setting [12].

For ALWKTLLKKVLKAAAK [satpdb14616], the Activity is, setting by setting: under setting [10], 0; under setting [11], 0; under setting [12], 0.

“ALWKTMLKKLGTMALHAGKAALGAAADTISQGTQ [compound 1708]”: the Activity is 1 under setting [1], 1 under setting [2], 1 under setting [3] and 1 under setting [4].

As to “ANIKLSVQMKLFKRHLKWKIIVKLNDGRELSLDA [satpdb18078]”, the Activity was 1 under setting [1], 1 under setting [2], 1 under setting [3] and 1 under setting [4].

Consider “APRLPQCQGDDQEKCLCNKDECPPGQCRFPRGDADPYCE [1DEC NMR - A 1-39]”, for which the Activity was 0 under setting [7] and 0 under setting [8].

Regarding “ARLKKCFNKVTGYCRKKCKVGERYEIGCLSGKLCCAN [satpdb10509]”, the Activity is given as 0 under setting [1] and 0 under setting [6].

For the substance “ASFPWSCPSLSGVCRKVCLPTELFFGPLGCGKGFLCGVSHFL [satpdb13301]”, the Activity runs as follows: under setting [5], 0; under setting [11], 0.

On to ASSGWVCTLTIECGTVICACR [satpdb11450], for which the Activity was 0 under setting [5] and 0 under setting [6].

“ATCDLLSPFKVGHAACAAHCIARGKRGGWCDKRAVCNCRK [satpdb11323]”: the Activity runs as follows: under setting [1], 0; under setting [6], 0.

With “ATYYGNGLYCNKQKCWVDWNKASREIGKIIVNGWVQHGPWAPR [satpdb12250]”, the Activity is, setting by setting: under setting [5], 0; under setting [6], 0.

Take AWASFFKKAAHVGKHVGKAALTHYL [satpdb11738]: the Activity under setting [5] was 0 and the Activity under setting [6] is 0.

Turning to AWKKWAKAWKWAKAKWWAKAA [compound 4482], the Activity is on record as 1 under setting [1], 1 under setting [2], 1 under setting [3] and 1 under setting [4].

On to “CENTISGCSR ADCLLTHRKQ GCQKTCGLC [5WCV NMR - A 1-29]”, for which the Activity was 0 under setting [8] and 0 under setting [4].

Consider “CETWRTETTGATGQASSLLSGRLLEQKAASCHNSYIVLCIENSFMTSFSK [satpdb15843]”, for which the Activity is, setting by setting: under setting [1], 1; under setting [2], 1; under setting [3], 1; under setting [4], 1.

For the substance CKGRGKRCREKQRPSDKPRR [satpdb11644], the Activity under setting [1] is 1, the Activity under setting [2] was 1, the Activity under setting [3] is recorded as 1 and the Activity under setting [4] is listed as 1.

Turning to CLGVGSCNDFAGCGYAIVCFW [satpdb11014], the Activity is given as 0 under setting [1] and 0 under setting [6].

Regarding CLRIGMRGRELMGGIGKTM [satpdb12393], the Activity by setting is: under setting [5], 0; under setting [6], 0.

Regarding “CSNLSTCVLGKLSQELHKLQTYPRTDVGAGTP [1BKU NMR - A 1-32]”, the Activity under setting [8] is 0 and the Activity under setting [4] is on record as 0.

Consider “CSTNTFSLSDYWGNKGNWCTATHECMSWCK [satpdb10487]”, for which the Activity by setting is: under setting [1], 0; under setting [6], 0.

“CTTGPCCRQCKLKPAGTTCWKTSLTSHYCTGKSCDCPLYPG [1MPZ NMR - A 1-41]”: the Activity by setting is: under setting [7], 0; under setting [8], 0.

Regarding “DDTPSSRCGSGGWGPCLPIVDLLCIVHVTVGCSGGFGCCRIG [2JR3 NMR - A 1-42]”, the Activity reads like this: under setting [7], 0; under setting [8], 0.

For DFKLFAVTIKYR [satpdb15826], the Activity by setting is: under setting [1], 1; under setting [2], 1; under setting [3], 1; under setting [4], 1.

In the case of DFKLFAVYIKYR [satpdb16901], the Activity by setting is: under setting [1], 1; under setting [2], 1; under setting [3], 1; under setting [4], 1.

As for DGRKICLDPDAPRIKKIVQKKL [satpdb12249], the Activity was 1 under setting [1], 1 under setting [2], 1 under setting [3] and 1 under setting [4].

As for “DGVKLCDVPSGTWSGHCGSSSKCSQQCKDREHFAYGGACHYQFPSVKCFCKRQC [2N2Q NMR - A 1-54]”, the Activity runs as follows: under setting [7], 0; under setting [12], 0.

For the substance “DIEDFYTSETCPYKNDSQLAWDTCSGGTGNCGTVCCGQCFSFPVSQSCAGMADSNDCPNA [2NSW NMR - A 1-60]”, the Activity under setting [7] is given as 0 and the Activity under setting [12] was 0.

For “DKLIGSCVWGAVNYTSDCNGECKRRGYKGGHCGSFANVNCWCET [1I2U NMR - A 1-44]”, the Activity under setting [7] is recorded as 0 and the Activity under setting [8] was 0.

For “DKLIGSCVWGAVNYTSNCNAECKRRGYKGGHCGSFANVNCWCET [1OZZ NMR - A 1-44]”, the Activity runs as follows: under setting [7], 0; under setting [8], 0.

As for “DLRFWNPREKLPLPTLPPFNPKPIYIDMGNRY [satpdb12945]”, the Activity by setting is: under setting [5], 0; under setting [11], 0.

Take DLWIRETLTSPKSLTG [satpdb21617]: the Activity under setting [1] is 1, the Activity under setting [2] is on record as 1, the Activity under setting [3] is listed as 1 and the Activity under setting [4] is given as 1.

Regarding DRSTREPIYMSTI [satpdb20500], the Activity runs as follows: under setting [1], 1; under setting [2], 1; under setting [3], 1; under setting [4], 1.

Consider ECRRLCYKQRCVTYCRGR [compound 4435], for which the Activity under setting [1] was 1, the Activity under setting [2] was 1, the Activity under setting [3] is given as 1 and the Activity under setting [4] was 1.
